A word on the IC50: it is the point on the concentration scale where inhibition reaches its midpoint.

17 compounds from patent publication USRE46511E1, “Fused pyrimidine derivatives for inhibition of tyrosine kinase activity” (HANMI SCIENCE CO., LTD., priority 2010, dated 2017) can be followed below.

One series deals with NCI-H1975 cancer cells. The series is described as follows: Anticancer efficacy test in nude mice xenografted with NCI-H1975 cancer cells. It counts as in vivo. The conditions noted are these: 50 mg/kg, oral, one time a day for 10 days; measured on 16th day after administration. As for the experimental part: NCI-H1975 cell (lung cancer cell) was purchased from American Type Culture Collection (ATCC). After formation of tumor by subcutaneous injection with 1×10^8 cells/0.3 mL of tumor cell suspension on the back of mice, passages were carried out and tumor in at least third generation was used in the test.
(§1) In the test, a tumor in the sixth generation isolated from an individual was cut into a size of 30 mg, and transplanted subcutaneously into right flanks of mice using a 12-gauge trocar. The volume of tumor (V) is calculated from following equation 1 after measuring a long diameter (L) and a short diameter (S) using a vernier caliper twice a week for 18 days of test. All test materials were orally administered one time a day for total 10 days, and the tumor growth inhibition rate (IR: tumor growth inhibition rate (%) calculated based on a vehicle-treated control) and the maximum body weight loss (mBWL: maximum body weight loss calculated based on the body weight just before administration) were calculated using following equations 2 and 3. V=L×S^2/2 <Equation 1>
wherein, L is a long diameter and S is a short diameter. IR(%)=(1−(RTG of the treatment group of test material)/(RTG of the control group))×100 <Equation 2>

The nature of series [1]: Body weight change in nude mice xenografted with NCI-H1975 cancer cells. It counts as in vivo. As to conditions: 50 mg/kg, oral, one time a day for 10 days; measured on 10th day after administration. As for the experimental part: as §1, with “. In” for “In”
wherein, RTG is a relative tumor growth, which is the mean tumor volume on a particular day based on […] mean tumor volume. mBWL(%)=(1−(mean body weight on day x/mean body weight just before administration))×100 <Equation 3>
wherein, day x is a day on which the body weight loss is largest during the test.

For another series, the target named is T1, EGFR L858R/T790M (Homo sapiens, UniProt P00533, L858R/T790M).
T1 construct: purchased Invitrogen
The series is described as follows: z-lyte kinase assay, EGFR L858R/T790M. It counts as biochemical.

The next series relates to A431 (EGFR WT). The series can be described thus: Inhibition test for growth of cancer cell expressing EGFR (SRB), A431.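 Further: cells in 96-well plates exposed to tenfold serial dilutions from 100 µM down to 10^−6 µM, DMSO under 1%, SRB staining read as absorbance at 540 nm.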 It counts as cell-based. The conditions noted are these: Homo sapiens, A-431; A431 cells, 72 hours, SRB; read-out: GI50 A431 EGFR WT.
The target in the next series is T2, EGFR WT (Homo sapiens, UniProt P00533).
T2 construct: purchased Invitrogen
The series can be described thus: z-lyte kinase assay, EGFR WT. It counts as biochemical.

The target in another series is T3, JAK3 (Homo sapiens, UniProt P52333).
T3 construct: purchased Invitrogen
T3 sequence (P52333 1-1124): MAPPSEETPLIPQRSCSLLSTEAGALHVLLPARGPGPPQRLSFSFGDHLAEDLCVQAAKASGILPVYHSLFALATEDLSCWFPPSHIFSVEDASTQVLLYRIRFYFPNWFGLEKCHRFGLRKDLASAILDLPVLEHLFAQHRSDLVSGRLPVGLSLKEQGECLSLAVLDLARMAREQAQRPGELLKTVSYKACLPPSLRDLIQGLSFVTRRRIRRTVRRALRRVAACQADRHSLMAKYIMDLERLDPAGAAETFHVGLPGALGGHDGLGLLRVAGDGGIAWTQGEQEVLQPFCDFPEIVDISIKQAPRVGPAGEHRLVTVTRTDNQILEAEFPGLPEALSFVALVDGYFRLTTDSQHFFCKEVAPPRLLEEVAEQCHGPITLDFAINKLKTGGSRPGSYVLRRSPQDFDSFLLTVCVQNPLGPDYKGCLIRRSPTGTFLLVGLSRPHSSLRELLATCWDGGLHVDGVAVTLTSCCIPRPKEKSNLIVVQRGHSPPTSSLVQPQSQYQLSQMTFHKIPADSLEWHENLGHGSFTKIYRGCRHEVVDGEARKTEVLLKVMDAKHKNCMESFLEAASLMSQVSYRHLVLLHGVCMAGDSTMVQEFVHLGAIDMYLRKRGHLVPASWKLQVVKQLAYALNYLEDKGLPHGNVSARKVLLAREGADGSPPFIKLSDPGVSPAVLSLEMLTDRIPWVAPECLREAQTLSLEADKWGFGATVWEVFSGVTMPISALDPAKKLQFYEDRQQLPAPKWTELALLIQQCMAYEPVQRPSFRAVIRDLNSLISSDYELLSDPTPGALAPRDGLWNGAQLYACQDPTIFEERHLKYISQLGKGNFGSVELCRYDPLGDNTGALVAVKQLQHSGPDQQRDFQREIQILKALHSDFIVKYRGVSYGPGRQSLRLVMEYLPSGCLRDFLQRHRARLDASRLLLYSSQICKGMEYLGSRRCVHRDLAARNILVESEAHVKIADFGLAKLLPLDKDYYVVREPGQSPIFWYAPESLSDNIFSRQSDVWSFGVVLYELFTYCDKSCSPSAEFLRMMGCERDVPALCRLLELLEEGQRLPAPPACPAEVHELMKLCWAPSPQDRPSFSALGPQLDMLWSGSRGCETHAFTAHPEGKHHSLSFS
The series is described as follows: z-lyte kinase assay, JAK3. It counts as biochemical. In a few lines: (§2)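 Each kinase was mixed with peptide substrate, compound (dilution series made at 1–0.0001 μM in 4% DMSO) and ATP added from a 5~300 μM solution, then incubated 60 min at RT. After development reagent and stop solution, fluorescence was read at 400 nm excitation/520 nm emission and IC50 calculated.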

In another series the target is T4, BTK (Homo sapiens, UniProt Q06187).
T4 construct: purchased Invitrogen
The series can be described thus: z-lyte kinase assay, BTK. In kind it is biochemical. In a few lines:
as §2

For series [2], the system named is NCI-H1975 (EGFR L858R/T790M). The series is described as follows: Inhibition test for growth of cancer cell expressing EGFR (MTS), NCI-H1975. It counts as cell-based. The conditions noted are these: Homo sapiens; NCI-H1975 cells, 48 hours, MTS; read-out: GI50 NCI-H1975 EGFR L858R/T790M.
In series [3] the test system is HCC827 (EGFR DelE746_A750). The series can be described thus: Inhibition test for growth of cancer cell expressing EGFR (SRB), HCC827.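 Further: cells in 96-well plates exposed to tenfold serial dilutions from 100 µM, fixed with trichloroacetic acid, SRB-stained, absorbance read at 540 nm, DMSO under 1%.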 In kind it is cell-based. As to conditions: Homo sapiens, HCC827, 72 h, HCC827 cells, 72 hours, SRB; read-out: GI50 HCC827 EGFR DelE746_A750.
Description: A431 cell line was incubated in a high-glucose DMEM (Dulbecco's Modified Eagle's Medium) supplemented with 10% fetal bovine serum (FBS) and 1% penicillin/streptomycin (Gibco BRL), and HCC827 and NCI-H1975 cell lines were incubated in an RPMI medium supplemented with 10% FBS, 1% penicillin/streptomycin and 1% sodium pyruvate.
The cancer cell lines stored in a liquid nitrogen tank were each quickly thawed at 37° C., and centrifuged to remove the medium. The resulting cell pellet was mixed with a culture medium, incubated in a culture flask at 37° C. under 5% CO2 for 2 to 3 days, and the medium was removed. The remaining cells were washed with DPBS (Dulbecco's Phosphate Buffered Saline) and separated from the flask by using Tripsin-EDTA. […] 100 μl of the diluted cell solution was added to each well of a 96-well plate, and incubated at 37° C. under 5% CO2 for 1 day.
In case that the test compound was not soluble in DMSO, 1% HCl was added thereto and treated in a 40° C. water bath for 30 mins until a complete dissolution was attained. The DMSO solution containing test compound was diluted with a culture medium to a final concentration of 100 μM, and then diluted 10 times serially to 10^−6 μM (a final concentration of DMSO was less than 1%).
The medium was removed from each well of the 96-well plate. And then, 100 μl of a test compound solution was added to each well holding the cultured cells, and the plate was incubated at 37° C. under 5% CO2 for 72 hours (except that NCI-H1975 cells were incubated for 48 hours). After removing the medium from the plate, 50 μA of 10% trichloroacetic acid was added to each well, and the plate was kept at 4° C. for 1 hour to fix the cells to the bottom of the plate. The added 10% trichloroacetic acid solution was removed from each well, the plate was dried, 100 μA of an SRB (Sulforhodamine-B) dye solution at a concentration of 0.4% dissolved in 1% acetic acid was added thereto, and the resulting mixture was reacted for 10 mins at room temperature. After removing the dye solution, the plate was washed with water, and well dried. When the dye solution was not effectively removed by water, 1% acetic acid was used. 150 μA of 10 mM trisma base was added to each well, and the absorbance at 540 nm wavelength was determined with a microplate reader.

Bounds are passed on as bounds.

T4 sequence (Q06187 whole entry): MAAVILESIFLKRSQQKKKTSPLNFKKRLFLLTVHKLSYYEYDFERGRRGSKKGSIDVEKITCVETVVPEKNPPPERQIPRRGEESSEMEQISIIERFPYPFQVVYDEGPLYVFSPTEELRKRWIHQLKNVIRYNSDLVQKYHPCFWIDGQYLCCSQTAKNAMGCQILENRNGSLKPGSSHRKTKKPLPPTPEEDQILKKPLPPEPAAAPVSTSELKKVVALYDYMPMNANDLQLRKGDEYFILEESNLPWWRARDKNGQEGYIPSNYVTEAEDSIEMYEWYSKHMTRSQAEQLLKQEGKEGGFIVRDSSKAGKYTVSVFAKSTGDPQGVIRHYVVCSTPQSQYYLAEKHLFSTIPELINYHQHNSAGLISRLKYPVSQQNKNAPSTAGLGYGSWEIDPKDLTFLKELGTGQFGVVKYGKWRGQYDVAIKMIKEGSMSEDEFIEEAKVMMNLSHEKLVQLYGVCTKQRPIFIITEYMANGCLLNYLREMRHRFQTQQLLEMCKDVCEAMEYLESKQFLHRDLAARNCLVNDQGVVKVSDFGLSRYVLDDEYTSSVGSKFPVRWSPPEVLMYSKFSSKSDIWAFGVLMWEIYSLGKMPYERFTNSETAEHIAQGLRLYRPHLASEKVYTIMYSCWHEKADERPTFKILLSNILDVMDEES
T2 sequence (P00533 25-1210): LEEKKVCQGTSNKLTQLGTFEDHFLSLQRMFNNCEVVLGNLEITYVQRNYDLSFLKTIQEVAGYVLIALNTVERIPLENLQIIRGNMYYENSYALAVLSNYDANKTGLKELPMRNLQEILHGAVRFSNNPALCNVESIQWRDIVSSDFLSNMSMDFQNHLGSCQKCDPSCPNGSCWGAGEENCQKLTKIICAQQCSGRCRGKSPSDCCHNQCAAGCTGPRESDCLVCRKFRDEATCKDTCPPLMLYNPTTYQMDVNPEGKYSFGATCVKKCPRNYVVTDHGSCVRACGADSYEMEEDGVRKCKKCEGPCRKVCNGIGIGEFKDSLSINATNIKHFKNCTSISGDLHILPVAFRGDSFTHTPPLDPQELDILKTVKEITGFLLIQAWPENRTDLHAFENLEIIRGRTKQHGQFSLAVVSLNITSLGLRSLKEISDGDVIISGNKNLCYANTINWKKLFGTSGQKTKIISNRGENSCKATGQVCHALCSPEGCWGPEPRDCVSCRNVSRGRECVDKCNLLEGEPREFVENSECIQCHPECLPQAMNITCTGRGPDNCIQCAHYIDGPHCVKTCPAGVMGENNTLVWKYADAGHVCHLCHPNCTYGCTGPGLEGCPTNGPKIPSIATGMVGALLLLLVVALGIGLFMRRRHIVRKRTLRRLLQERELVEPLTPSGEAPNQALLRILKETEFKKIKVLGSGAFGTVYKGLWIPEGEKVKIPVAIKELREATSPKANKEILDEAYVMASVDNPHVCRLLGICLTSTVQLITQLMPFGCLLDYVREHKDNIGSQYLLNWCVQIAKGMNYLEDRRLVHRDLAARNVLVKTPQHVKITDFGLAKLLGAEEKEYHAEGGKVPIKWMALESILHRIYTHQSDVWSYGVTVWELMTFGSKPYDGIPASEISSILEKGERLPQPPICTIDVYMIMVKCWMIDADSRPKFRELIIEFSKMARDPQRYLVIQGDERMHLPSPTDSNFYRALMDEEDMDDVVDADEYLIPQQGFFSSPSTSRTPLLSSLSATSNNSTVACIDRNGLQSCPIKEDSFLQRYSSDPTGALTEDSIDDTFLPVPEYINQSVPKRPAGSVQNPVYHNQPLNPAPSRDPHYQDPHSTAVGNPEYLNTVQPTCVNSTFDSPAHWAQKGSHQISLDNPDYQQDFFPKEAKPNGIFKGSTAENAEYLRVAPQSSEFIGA
T1 sequence (P00533 25-1210 T790M/L858R): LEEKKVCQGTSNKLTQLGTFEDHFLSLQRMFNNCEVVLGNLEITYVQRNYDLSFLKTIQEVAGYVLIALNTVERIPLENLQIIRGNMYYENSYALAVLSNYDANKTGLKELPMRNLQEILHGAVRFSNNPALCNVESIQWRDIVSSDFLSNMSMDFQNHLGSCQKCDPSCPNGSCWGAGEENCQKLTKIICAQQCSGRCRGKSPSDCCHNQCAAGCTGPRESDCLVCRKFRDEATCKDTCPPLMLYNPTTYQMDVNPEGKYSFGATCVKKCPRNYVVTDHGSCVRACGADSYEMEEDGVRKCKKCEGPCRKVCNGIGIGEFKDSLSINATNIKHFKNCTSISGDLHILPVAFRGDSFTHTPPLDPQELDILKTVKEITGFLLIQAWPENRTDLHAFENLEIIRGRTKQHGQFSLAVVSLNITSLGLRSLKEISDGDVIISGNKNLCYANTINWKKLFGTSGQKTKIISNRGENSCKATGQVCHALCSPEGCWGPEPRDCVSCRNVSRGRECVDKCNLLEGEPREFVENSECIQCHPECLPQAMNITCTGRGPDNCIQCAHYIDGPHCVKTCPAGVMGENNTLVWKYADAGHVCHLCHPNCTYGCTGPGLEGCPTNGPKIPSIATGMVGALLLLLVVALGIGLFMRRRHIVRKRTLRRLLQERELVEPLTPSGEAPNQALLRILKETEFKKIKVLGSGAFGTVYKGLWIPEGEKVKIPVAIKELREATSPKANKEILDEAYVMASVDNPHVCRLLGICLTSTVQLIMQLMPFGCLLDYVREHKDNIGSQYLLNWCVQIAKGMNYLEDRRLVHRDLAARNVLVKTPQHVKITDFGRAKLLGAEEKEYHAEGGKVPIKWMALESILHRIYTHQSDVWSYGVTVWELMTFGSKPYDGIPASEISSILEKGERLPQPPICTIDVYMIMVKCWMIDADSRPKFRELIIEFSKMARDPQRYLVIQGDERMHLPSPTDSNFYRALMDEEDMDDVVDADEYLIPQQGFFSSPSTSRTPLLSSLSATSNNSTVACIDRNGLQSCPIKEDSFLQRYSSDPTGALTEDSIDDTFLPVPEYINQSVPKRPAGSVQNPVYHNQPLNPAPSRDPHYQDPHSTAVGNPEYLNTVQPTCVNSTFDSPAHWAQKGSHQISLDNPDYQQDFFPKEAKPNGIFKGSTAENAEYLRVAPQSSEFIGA

In the case of `CN(C)C/C=C/C(=O)Nc1cc2c(Nc3ccc(F)c(Cl)c3)ncnc2cc1O[C@H]1CCOC1` [BIBW2992, Afatinib, reference compound], the “IR (tumor growth inhibition rate)” value with NCI-H1975 cancer cells is reported as 77%. Besides, the “mBWL (maximum body weight loss)” value in series [1] amounted to 9.1%.
Take `C=CC(=O)Nc1cccc(Oc2nc(Nc3ccc(N4CCC(N5CCCCC5)CC4)cc3)nc3ccsc23)c1` [Example 48]: the half-inhibitory concentration (IC50) on EGFR L858R/T790M was below 50 nM; on EGFR WT it was 100 to 1000 nM; against JAK3, at most 50 nM; against BTK, at most 50 nM. For the same compound, the GI50 is above 1000 nM in the series on A431 (EGFR WT), below 50 nM in [2] and below 50 nM in [3].
Consider `C=CC(=O)Nc1cccc(Oc2nc(Nc3ccc(C4CCCN(C)C4)cc3OC)nc3ccsc23)c1` (stereo not shown) [Example 115], for which the half-inhibitory concentration (IC50) was below 50 nM against EGFR L858R/T790M and above 1000 nM at EGFR WT. Further, the GI50 in series [2] and in [3] was below 50 nM each time.
Turning to `C=CC(=O)Nc1cccc(Oc2nc(Nc3ccc(N4CCOCC4)c(F)c3)nc3ccsc23)c1` [Example 122], the figures for the IC50 on EGFR L858R/T790M and on EGFR WT were below 50 nM and above 1000 nM, respectively. Further, the figures for the GI50 (in the series on A431 (EGFR WT); in [2]; in [3]) were above 1000 nM, below 50 nM and below 50 nM, respectively.
Regarding `C=CC(=O)Nc1cccc(Oc2nc(Nc3ccc(CN4CCC(N5CCOCC5)CC4)cc3)nc3ccsc23)c1` [Example 181], the GI50 with A431 (EGFR WT) was above 1000 nM; in series [2], below 50 nM; in [3] it was below 50 nM. Besides, the concentration for half-maximal inhibition (IC50) at JAK3 and against BTK was at most 50 nM in each case.
With `C=CC(=O)Nc1cccc(Oc2nc(Nc3ccc(CN4CCN(C)CC4)cc3)nc3ccsc23)c1` [Example 182], the GI50 was above 1000 nM with A431 (EGFR WT), below 50 nM in series [2] and below 50 nM in series [3]. The concentration for half-maximal inhibition (IC50) was 50 to 100 nM at JAK3 and at most 50 nM against BTK.
Regarding `C=CC(=O)Nc1cccc(Oc2nc(Nc3ccc(CN4CCN(CC)CC4)cc3)nc3ccsc23)c1` [Example 183], the GI50 in the series on A431 (EGFR WT) was above 1000 nM; in series [2] it was below 50 nM; in series [3], below 50 nM. Also, the IC50 on JAK3 and against BTK was 50 to 100 nM in each case.
With `C=CC(=O)Nc1cccc(Oc2nc(Nc3ccc(CN4CCOCC4)cc3)nc3ccsc23)c1` [Example 187], the GI50 in the series on A431 (EGFR WT) is above 1000 nM; in [2] it was below 50 nM; in series [3] it was 50 to 100 nM. Further, the IC50 on JAK3 and against BTK was 50 to 100 nM each time.
For the compound `C=CC(=O)Nc1cccc(Oc2nc(Nc3ccc(NCCN(C)C)c(F)c3)nc3ccsc23)c1` [Example 199], the GI50 is above 1000 nM in the series on A431 (EGFR WT), below 50 nM in [2] and below 50 nM in [3]. The IC50 on JAK3 and at BTK was at most 50 nM throughout.
Turning to `C=CC(=O)Nc1cccc(Oc2nc(Nc3ccc(C(=O)N4CCN(CC)CC4)c(Cl)c3)nc3ccsc23)c1` [Example 203], the GI50 was above 1000 nM with A431 (EGFR WT), below 50 nM in series [2] and below 50 nM in [3]. Also, the 50% inhibitory concentration (IC50) against JAK3 is 50 to 100 nM; on BTK, at most 50 nM.
As to `C=CC(=O)Nc1cccc(Nc2nc(Nc3ccc(N4CCN(C)CC4)cc3)nc3ccsc23)c1` [Example 206, N-(3-(2-(4-(4-methylpiperazin-1-yl)phenylamino)thieno[3,2-d]pyrimidin-4-ylamino)phenyl)acrylamide], the results for the IC50 at EGFR L858R/T790M and against EGFR WT were below 50 nM and 100 to 1000 nM, respectively. Also, the values for the GI50 (in the series with A431 (EGFR WT); in series [2]; in [3]) were above 1000 nM, below 50 nM and below 50 nM, respectively.
For `C=CC(=O)Nc1cccc(Nc2nc(Nc3ccc(N4CCN(C)CC4)c(F)c3)nc3ccsc23)c1` [Example 215], the values for the IC50 on EGFR L858R/T790M and against EGFR WT were below 50 nM and above 1000 nM, respectively. Also, the GI50 in [2] and in series [3] was below 50 nM throughout.
On to `C=CC(=O)Nc1ccc(F)c(Nc2nc(Nc3ccc(N4CCN(C)CC4)c(F)c3)nc3ccsc23)c1` [Example 219, N-(4-fluoro-3-(2-(3-fluoro-4-(4-methyl-piperazin-1-yl)-phenylamino)-thieno[3,2-d]pyrimidin-4-ylamino)-phenyl)-acrylamide], for which the GI50 in the series with A431 (EGFR WT) is above 1000 nM; in series [2], below 50 nM; in series [3] it was below 50 nM. Further, the IC50 on JAK3 and on BTK was at most 50 nM each time.
With `C=CC(=O)Nc1cccc(Sc2nc(Nc3ccc(N4CCN(C)CC4)cc3)nc3ccsc23)c1` [Example 223, N-(3-(2-(4-(4-methylpiperazin-1-yl)phenylamino)thieno[3,2-d]pyrimidin-4-ylthio)phenyl)acrylamide], the GI50 in the series on A431 (EGFR WT) is above 1000 nM; in series [2] it was below 50 nM; in series [3] it was below 50 nM. Moreover, the IC50 against JAK3 and on BTK was at most 50 nM throughout.
As to `C=CC(=O)Nc1cccc(Oc2nc(Nc3ccc(N4CCN(C)CC4)cc3)nc3ccoc23)c1` [Example 228, N-(3-((2-((4-(4-methylpiperazin-1-yl)phenyl)amino)furo[3,2-d]pyrimidin-4-yl)oxy)phenyl)acrylamide], the results for the GI50 (in the series with A431 (EGFR WT); in series [2]; in series [3]) were 100 to 1000 nM, below 50 nM and below 50 nM, respectively. In addition, the 50% inhibitory concentration (IC50) at JAK3 and against BTK was at most 50 nM in each case.
On to `C=CC(=O)Nc1cccc(Oc2nc(Nc3ccc(N4CCN(C(C)C)CC4)cc3)nc3ccoc23)c1` [Example 229], for which the GI50 with A431 (EGFR WT) was 100 to 1000 nM; in series [2], below 50 nM; in series [3], below 50 nM. The IC50 against JAK3 and against BTK was at most 50 nM each time.
With `C=CC(=O)Nc1cccc(Oc2nc(Nc3ccc(NC4CCN(C)CC4)c(F)c3)nc3ccoc23)c1` [Example 237], the GI50 in the series with A431 (EGFR WT) was above 1000 nM; in series [2], below 50 nM; in series [3], below 50 nM. In addition, the IC50 on JAK3 and against BTK was at most 50 nM each time.
